# Laboratory results: patent US10781236B2, “Bacteriocin composition and method” (priority 2015, dated 2020)
# Experiments:
# [1] = system: S. agalactia; test: Antimicrobial activity against problematic bacteria; format: cell-based, Streptococcus agalactia; conditions: clinical sources
# Description: (§1) To screen for bacteriocin producers with broad inhibition spectra (BIS), Lactococcus lactis, Lactobacillus sakei, Lactobacillus plantarum, Listeria innocua, and Staphylococcus aureus from the food and dairy environment were used as indicators in the first round of screening. The antimicrobial screening was performed using the agar diffusion bioassay as previously described (Holo et al., 1991, J. Bacteriol., 173, p 3879-3887). Briefly, indicator cells from overnight cultures were diluted 100-fold in 5 mL of BHI soft agar and plated out as a lawn on BHI agar plates. Potential bacteriocin producers at volumes of 3 μL were spotted on the indicator lawn and then incubated at appropriate temperatures for 24 h for cell growth and cell inhibition. Inhibition was detected as clear zones around the spotted cells.
# (§2) As the antimicrobial activity of garvicin KS is relatively broad, we explored further its potential to kill a larger panel of important pathogens. The list contained 147 problematic or potentially problematic bacteria of species belonging to Listeria, Staphylococcus, Streptococcus and Enterococcus, isolated from food and clinical sources. In this assay, we compared the antimicrobial activity of garvicin KS with that of garvicin ML and nisin, the last one being known as a broad inhibition-spectrum bacteriocin (AIKhatib et al., 2014, PLOS One 9:e102246 doi:10.1371/joumal.pone.0102246). […]
# [2] = system: P. pentosaceus LMGT 2001; test: Relative MIC, inhibitory spectrum; format: cell-based, Pediococcus pentosaceus; conditions: relative to L. lactis IL 1403 = 1
# [3] = system: L. monocytogenes LMGT 2604; test: Relative MIC, inhibitory spectrum; format: cell-based, Listeria monocytogenes; conditions: relative to L. lactis IL 1403 = 1
# [4] = system: C. tyrobutyricum LMGT 2524; test: Relative MIC, inhibitory spectrum; format: cell-based, Clostridium tyrobutyricum; conditions: relative to L. lactis IL 1403 = 1
# [5] = system: Staph. Aureus; test: Antimicrobial activity against problematic bacteria; format: cell-based, Staphylococcus aureus
# Description: as §1, §2
# [6] = system: Enterococcus avium LMGT 3465; test: Relative MIC, inhibitory spectrum; format: cell-based; conditions: relative to L. lactis IL 1403 = 1
# [7] = system: S. salivarius; test: Antimicrobial activity against problematic bacteria; format: cell-based, Streptococcus salivarius; conditions: clinical sources
# Description: as §1, §2
# [8] = system: E. faecium LMGT 2876; test: Relative MIC, inhibitory spectrum; format: cell-based, Enterococcus faecium; conditions: relative to L. lactis IL 1403 = 1
# [9] = system: L. seelingeri; test: Antimicrobial activity against problematic bacteria; format: cell-based, Listeria seelingeri; conditions: food sources
# Description: as §1, §2
# [10] = system: L. lactis LMGT 2705; test: Relative MIC, inhibitory spectrum; format: cell-based, Lactococcus lactis; conditions: relative to L. lactis IL 1403 = 1
# [11] = system: E. faecalis LMGT 2333; test: Relative MIC, inhibitory spectrum; format: cell-based, Enterococcus faecalis; conditions: relative to L. lactis IL 1403 = 1
# [12] = system: L. lactis IL1403; test: Relative MIC, inhibitory spectrum; format: cell-based, Lactococcus lactis; conditions: the reference indicator, referred to as 1
# [13] = system: L. plantarum LMGT 2352; test: Relative MIC, inhibitory spectrum; format: cell-based, Lactobacillus plantarum; conditions: relative to L. lactis IL 1403 = 1
# [14] = system: E. faecium LMGT 2783; test: Relative MIC, inhibitory spectrum; format: cell-based, Enterococcus faecium; conditions: relative to L. lactis IL 1403 = 1
# [15] = system: C. tyrobutyricum LMGT 2511; test: Relative MIC, inhibitory spectrum; format: cell-based, Clostridium tyrobutyricum; conditions: relative to L. lactis IL 1403 = 1
# [16] = system: L. innocua LMGT 2785; test: Relative MIC, inhibitory spectrum; format: cell-based, Listeria innocua; conditions: relative to L. lactis IL 1403 = 1
# [17] = system: Clostridium bifermentans LMGT 2519; test: Relative MIC, inhibitory spectrum; format: cell-based; conditions: relative to L. lactis IL 1403 = 1
substance,measurement,setting,value
garvicin ML,number of sensitive strains / number of strains tested,[1],1/1
same,Relative MIC value,[2],16-32
same,Relative MIC value,[3],32
same,Relative MIC value,[4],32-64
same,number of sensitive strains / number of strains tested,[5]; clinical sources,9/25
same,number of sensitive strains / number of strains tested,[5]; food sources,4/28
same,Relative MIC value,[6],≤0.25
same,number of sensitive strains / number of strains tested,[7],1/1
same,Relative MIC value,[8],64-128
same,number of sensitive strains / number of strains tested,[9],0/1
same,Relative MIC value,[10],≤0.25
same,Relative MIC value,[11],64-128
same,Relative MIC value,[12],1
same,Relative MIC value,[13],16
same,Relative MIC value,[14],64
same,Relative MIC value,[15],32
same,Relative MIC value,[16],32
same,Relative MIC value,[17],16-32
